The target of assay [1] is Cyclin-dependent kinase 2/cyclin E (Homo sapiens, UniProt P24941). Put plainly: In vitro inhibition of human CDK2/cyclin E. In kind it is protein-complex assay.
For assay [2], the target named is Cyclin-dependent kinase 1/cyclin B (Homo sapiens, UniProt P06493). Put plainly: Inhibitory concentration against CDK1/cyclin B was determined. In kind it is protein-complex assay.
The target in assay [3] is Cyclin-dependent kinase 4/cyclin D (Homo sapiens, UniProt P11802). Nature of the assay: Inhibition of CDK4/cyclin D was determined. In kind it is protein-complex assay.
Another assay deals with A2780. Put plainly: Cytotoxic effect in ovarian cancer cell line (A2780). In kind it is functional, cell-based. The following applies: Homo sapiens.
Assay [4] has as its target Cyclin-dependent kinase 7/ cyclin H (Homo sapiens, UniProt P50613). Nature of the assay: Inhibition of CDK7/cyclin H. In kind it is protein-complex assay.
The target of assay [5] is Tyrosine-protein kinase Lck (Homo sapiens, UniProt P06239). Nature of the assay: Inhibition of LCK.
Sequence of Tyrosine-protein kinase Lck (P06239 whole entry): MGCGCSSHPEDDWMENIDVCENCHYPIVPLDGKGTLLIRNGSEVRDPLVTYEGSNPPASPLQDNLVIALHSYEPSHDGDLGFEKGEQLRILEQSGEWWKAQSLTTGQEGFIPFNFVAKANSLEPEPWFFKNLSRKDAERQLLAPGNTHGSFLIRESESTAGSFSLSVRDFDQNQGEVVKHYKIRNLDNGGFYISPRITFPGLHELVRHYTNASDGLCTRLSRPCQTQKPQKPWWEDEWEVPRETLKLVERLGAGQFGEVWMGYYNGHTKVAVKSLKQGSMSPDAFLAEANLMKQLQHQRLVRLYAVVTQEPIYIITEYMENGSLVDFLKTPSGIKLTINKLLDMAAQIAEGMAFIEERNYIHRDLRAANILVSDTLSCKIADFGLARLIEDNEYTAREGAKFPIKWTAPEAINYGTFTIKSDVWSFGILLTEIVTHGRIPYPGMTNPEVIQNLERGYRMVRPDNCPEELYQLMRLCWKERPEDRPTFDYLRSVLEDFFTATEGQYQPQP
The target in a further assay is Protein kinase C (PKC). Nature of the assay: Inhibition of PKC. In kind it is protein assay.
In assay [6] the target is cAMP-dependent protein kinase (PKA) (Homo sapiens, UniProt P22694+P17612+P22612). Put plainly: Inhibition of PKA. In kind it is protein assay.

SMILES strings stand for the structures.

One may read the IC50 as the concentration that gives 50% inhibition. A higher IC50 goes with weaker potency.

Sequence of Cyclin-dependent kinase 7/ cyclin H (P51946 whole entry): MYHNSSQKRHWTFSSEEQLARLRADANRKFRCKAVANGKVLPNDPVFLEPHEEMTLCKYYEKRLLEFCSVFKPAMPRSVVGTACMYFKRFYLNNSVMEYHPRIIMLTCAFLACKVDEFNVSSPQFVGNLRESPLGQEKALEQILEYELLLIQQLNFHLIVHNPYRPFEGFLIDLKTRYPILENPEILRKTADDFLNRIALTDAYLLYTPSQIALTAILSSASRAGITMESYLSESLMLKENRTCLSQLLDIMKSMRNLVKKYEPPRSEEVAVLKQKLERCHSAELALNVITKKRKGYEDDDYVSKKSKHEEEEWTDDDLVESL
Sequence of Cyclin-dependent kinase 7/ cyclin H (P50613 whole entry): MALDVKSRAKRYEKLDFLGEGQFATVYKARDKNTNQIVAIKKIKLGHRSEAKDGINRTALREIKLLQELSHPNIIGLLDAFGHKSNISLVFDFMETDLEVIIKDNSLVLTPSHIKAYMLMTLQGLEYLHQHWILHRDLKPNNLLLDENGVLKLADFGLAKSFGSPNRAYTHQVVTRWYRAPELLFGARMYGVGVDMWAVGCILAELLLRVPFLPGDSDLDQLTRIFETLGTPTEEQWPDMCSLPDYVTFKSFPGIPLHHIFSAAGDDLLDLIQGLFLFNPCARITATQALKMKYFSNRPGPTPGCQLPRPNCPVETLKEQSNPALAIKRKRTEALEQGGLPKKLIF

In turn, `O=C(c1ccccc1)c1cnc2[nH]ncc2c1Oc1ccccc1` yielded an IC50 in assay [1] of 15000 nM.

Consider `O=C(c1ccccc1)c1cnc2[nH]ncc2c1OCc1ccccc1`, for which the IC50 was 280 nM in assay [1] and 350 nM in assay [2].

In the case of `CN(C)CCOc1c(C(=O)c2ccccc2)cnc2[nH]ncc12`, in assay [1], the IC50 was 17000 nM.

The compound `CCCCSc1c(C(=O)c2ccccc2)cnc2[nH]ncc12` came in with an IC50 in assay [1] of 4400 nM.

Turning to `CCCCOc1c2cnnc-2[nH]cc1C(O)c1ccccc1` (stereo not given), the IC50 in assay [1] is > 25000 nM.

`CCCOc1c(C(=O)c2ccccc2)cnc2[nH]ncc12`: the IC50 came to 180 nM in assay [1] and 220 nM in assay [2].

As to `CCCCOc1c(C(=O)c2ccccc2)cnc2[nH]ncc12` [SQ-67563], the IC50 is > 25000 nM in assay [3], 110 nM in assay [1], 5800 nM in the assay with A2780 and 150 nM in assay [2].

With `CCCC(C)Oc1c(C(=O)c2ccccc2)cnc2[nH]ncc12` (stereo not given), the IC50 was found to be 520 nM in assay [1] and 310 nM in assay [2].

As for `O=C(c1ccccc1)c1cnc2[nH]ncc2c1OC1CCCCC1`, the IC50 came out at 660 nM in assay [1] and 600 nM in assay [2].

`CC(C)CCOc1c(C(=O)c2ccccc2)c[nH]c2nncc1-2`: the IC50 in assay [4] was 1100 nM; in assay [5] it was > 50000 nM; in assay [3] it was > 25000 nM; in assay [1] it was 180 nM; against Protein kinase C (PKC), > 50000 nM; in assay [2] it was 240 nM. Besides, the IC50 in assay [6] was > 50000 nM.

For the compound `CCn1ncc2c(OCCC(C)C)c(C(=O)c3ccccc3)cnc21`, the IC50 in assay [1] was > 25000 nM.

As to `CCCCCOc1c(C(=O)c2ccccc2)cnc2[nH]ncc12`, the IC50 in assay [1] turned out to be 240 nM; in assay [2], 310 nM.

Turning to `CCCCN(C)c1c(C(=O)c2ccccc2)cnc2[nH]ncc12`, the IC50 in assay [1] is > 25000 nM.

For the compound `CCCCOc1c(Cc2ccccc2)c[nH]c2nncc1-2`, the IC50 in assay [1] is > 25000 nM.

`O=C(c1ccccc1)c1cnc2[nH]ncc2c1OCCO` yielded an IC50 in assay [1] of 3700 nM.

For the compound `C=C(c1ccccc1)c1c[nH]c2nncc-2c1OCCCC`, the IC50 in assay [1] was > 25000 nM.

Values taken from ChEMBL document CHEMBL1136654, “1H-Pyrazolo[3,4-b]pyridine inhibitors of cyclin-dependent kinases” (Bioorg Med Chem Lett, 2003).
